Results published in patent publication US4130559A, “Method for the preparation of 6-aminopenicillinic acid derivatives” (priority 1977, dated 1978).
≈ marks a conversion by molar mass, not a printed value.

System: not listed separately
Test: Acid resistance (half-life period)
Assay type: physicochemical
Settings: acid ph 1.3; Temperature 37° C, pH 1.3; Table 1, cyclopentyl series; read-out: τ1/2 half-life period (acid resistance)
Method: (§1) All compounds of this group were prepared in the form of sodium salts. Bactericidal activity, degree of hydrolysis with staphylococc penicillinase and acid resistance of the penicillins were determined.
Compound `CC(C)Oc1ccc(C2(C(=O)NC3C(=O)N4C3SC(C)(C)C4C(=O)O)CCCC2)cc1` (stereo not shown) [Compound XV (Table 1)] has a half-life of 160 min.

Same assay, conditions: acid ph 1.3; Temperature 37° C, pH 1.3; Table 2, cyclopropyl series; read-out: τ1/2 half-life period (acid resistance)
Work on `CC1(C)SC2C(NC(=O)C3(c4ccccc4)CC3)C(=O)N2C1C(=O)O` (stereo not shown) [Compound I (Table 2)] yielded a half-life of 9.9 min. With `COc1ccccc1C1(C(=O)NC2C(=O)N3C2SC(C)(C)C3C(=O)O)CC1` (stereo not shown) [Compound II (Table 2)] the half-life was 5 min. In the case of `CCOc1ccccc1C1(C(=O)NC2C(=O)N3C2SC(C)(C)C3C(=O)O)CC1` (stereo not shown) [Compound III (Table 2)], the half-life is reported as 6 min. In the case of `CCCOc1ccccc1C1(C(=O)NC2C(=O)N3C2SC(C)(C)C3C(=O)O)CC1` (stereo not shown) [Compound IV (Table 2)], the half-life is reported as 5.8 min.

Molecular target: staphylococc penicillinase (Staphylococcus aureus, UniProt P00807)
Sequence (P00807 25-281): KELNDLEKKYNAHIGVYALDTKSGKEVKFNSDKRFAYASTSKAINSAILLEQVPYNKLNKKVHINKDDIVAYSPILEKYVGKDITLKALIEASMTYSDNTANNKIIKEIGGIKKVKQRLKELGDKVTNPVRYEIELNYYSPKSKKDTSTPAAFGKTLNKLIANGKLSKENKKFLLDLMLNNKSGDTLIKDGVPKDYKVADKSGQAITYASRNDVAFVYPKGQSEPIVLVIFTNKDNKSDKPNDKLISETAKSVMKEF
Test: Hydrolysis/inactivation by staphylococc penicillinase
Assay type: biochemical
Settings: Table 5
Method: as §1
The substitution of propoxy radical for iso-radical in this position is not accompanied by areduction of penicillin stability against penicillinase which is not observed in the orto- and para-positions. During the subsequent hours of inactivation the rate of hydrolysis of penicillins slightly increases. However, even when observed in dynamics, their stability against penicillianase still persists during 4-hour-inactivation.
With `CC(C)Oc1ccc(C2(C(=O)NC3C(=O)N4C3SC(C)(C)C4C(=O)O)CCCC2)cc1` (stereo not shown) [Compound XV (Table 1)] the “Quantity of inactivated units of compounds under the action of 1 unit of staphylococc penicillinase” value was 9.4 units.

System: B.Subtitis ATCC6633
Test: Minimal bacteriostatic concentration
Assay type: cell-based
Settings: sodium salts
Method: as §1
With `CC(C)Oc1ccc(C2(C(=O)NC3C(=O)N4C3SC(C)(C)C4C(=O)O)CCCC2)cc1` (stereo not shown) [Compound XV (Table 1)] the MIC was 0.24 µg/mL.

System: E.coli O-55
Test: Minimal bacteriostatic concentration
Assay type: cell-based
Settings: Escherichia coli, O55, read-out: Minimal Bacteriostatic Concentration
Method: as §1
With `CC(C)Oc1ccc(C2(C(=O)NC3C(=O)N4C3SC(C)(C)C4C(=O)O)CCCC2)cc1` (stereo not shown) [Compound XV (Table 1)] the MIC was 25 µg/mL (≈ 56 µM).

System: E.typhi
Test: Minimal bacteriostatic concentration
Assay type: cell-based
Settings: read-out: Minimal Bacteriostatic Concentration
Method: as §1
Work on `CC(C)Oc1ccc(C2(C(=O)NC3C(=O)N4C3SC(C)(C)C4C(=O)O)CCCC2)cc1` (stereo not shown) [Compound XV (Table 1)] yielded an MIC of 7.8 µg/mL (≈ 17.5 µM).

System: Myco smegmatis
Test: Minimal bacteriostatic concentration
Assay type: cell-based
Settings: sodium salts
Method: as §1
With `CC(C)Oc1ccc(C2(C(=O)NC3C(=O)N4C3SC(C)(C)C4C(=O)O)CCCC2)cc1` (stereo not shown) [Compound XV (Table 1)] the MIC was over 500 µg/mL.

System: Prot.vulgaris
Test: Minimal bacteriostatic concentration
Assay type: cell-based
Settings: Proteus vulgaris, sodium salts
Method: as §1
With `CC(C)Oc1ccc(C2(C(=O)NC3C(=O)N4C3SC(C)(C)C4C(=O)O)CCCC2)cc1` (stereo not shown) [Compound XV (Table 1)] the MIC was 62.5 µg/mL.

System: Ps.aeruginosa
Test: Minimal bacteriostatic concentration
Assay type: cell-based
Settings: Pseudomonas aeruginosa, sodium salts
Method: as §1
Work on `CC(C)Oc1ccc(C2(C(=O)NC3C(=O)N4C3SC(C)(C)C4C(=O)O)CCCC2)cc1` (stereo not shown) [Compound XV (Table 1)] yielded an MIC of over 500 µg/mL.

System: Sh.dysenteriae Flexneri
Test: Minimal bacteriostatic concentration
Assay type: cell-based
Settings: Shigella dysenteriae, read-out: Minimal Bacteriostatic Concentration
Method: as §1
Work on `CC(C)Oc1ccc(C2(C(=O)NC3C(=O)N4C3SC(C)(C)C4C(=O)O)CCCC2)cc1` (stereo not shown) [Compound XV (Table 1)] yielded an MIC of 31.2 µg/mL (≈ 69.9 µM).

System: Staph. albus
Test: Minimal bacteriostatic concentration
Assay type: cell-based
Settings: sodium salts
Method: as §1
For `CC(C)Oc1ccc(C2(C(=O)NC3C(=O)N4C3SC(C)(C)C4C(=O)O)CCCC2)cc1` (stereo not shown) [Compound XV (Table 1)], the MIC was 0.19 µg/mL.

System: Staph. aureus 209p
Test: Minimal bacteriostatic concentration
Assay type: cell-based
Settings: Staphylococcus aureus, sodium salts
Method: as §1
Work on `CC(C)Oc1ccc(C2(C(=O)NC3C(=O)N4C3SC(C)(C)C4C(=O)O)CCCC2)cc1` (stereo not shown) [Compound XV (Table 1)] yielded an MIC of 0.19 µg/mL.

System: Strept. pyrogenes
Test: Minimal bacteriostatic concentration
Assay type: cell-based
Settings: sodium salts
Method: as §1
`CC(C)Oc1ccc(C2(C(=O)NC3C(=O)N4C3SC(C)(C)C4C(=O)O)CCCC2)cc1` (stereo not shown) [Compound XV (Table 1)] gave an MIC of 0.09 µg/mL.

System: Vibrion Metschnicoff
Test: Minimal bacteriostatic concentration
Assay type: cell-based
Settings: Vibrion Metschnicoff; sodium salts; read-out: Minimal Bacteriostatic Concentration
Method: as §1
With `CC(C)Oc1ccc(C2(C(=O)NC3C(=O)N4C3SC(C)(C)C4C(=O)O)CCCC2)cc1` (stereo not shown) [Compound XV (Table 1)] the MIC was 0.48 µg/mL.

System: not listed separately
Test: in vivo
Settings: mouse, iv
`CC1(C)SC2C(NC(=O)C3(c4ccccc4)CC3)C(=O)N2C1C(=O)O` (stereo not shown) [Compound I (Table 2)] showed an MTD of 1500 mg/kg. `COc1ccccc1C1(C(=O)NC2C(=O)N3C2SC(C)(C)C3C(=O)O)CC1` (stereo not shown) [Compound II (Table 2)] gave an MTD of 2000 mg/kg. With `CCOc1ccccc1C1(C(=O)NC2C(=O)N3C2SC(C)(C)C3C(=O)O)CC1` (stereo not shown) [Compound III (Table 2)] the MTD was 500 mg/kg. In the case of `CCCOc1ccccc1C1(C(=O)NC2C(=O)N3C2SC(C)(C)C3C(=O)O)CC1` (stereo not shown) [Compound IV (Table 2)], the MTD is reported as 500 mg/kg. Work on `CC(C)Oc1ccc(C2(C(=O)NC3C(=O)N4C3SC(C)(C)C4C(=O)O)CCCC2)cc1` (stereo not shown) [Compound XV (Table 1)] yielded an MTD of 1500 mg/kg.
